Assay [1] has as its system DIC model (thrombin injected into ICR mice). Put plainly: Effect on DIC model (thrombin-induced fatality, survival rate). Format: in vivo. As to conditions: dose 1 mg/kg i.v. one minute before 800 U/kg thrombin; after 24 hours. As to the method: D-HG, FGAG and heparin were tested for an effect on DIC model in accordance with the method described in Japan J. Pharmacol, 35, 203-227 (1984).
Used as D-HG was the sodium salt obtained in Example 16, as FGAG the sodium/potassium salt obtained in Reference Example 1 and as a heparin a sodium salt having a potency of 185.6 U/mg.
A 800 U/kg of thrombin was intravenously injected into ICR mice (10 to 15 mice a group). […] The D-HG sodium salt, FGAG sodium/potassium salt or heparin sodium salt was intravenously injected one minute before the administration of thrombin.

Assay [2] deals with citric acid-containing plasma (activated partial thromboplastin time). Put plainly: Anti-coagulation activity in human: x2APTT. As to conditions: concentration required to double APTT of control. Format: biochemical. From the text:
(§1) Using the citric acid-containing plasma obtained from more than 6 normal persons, the D-HG sodium salt (Example 16), a FGAG sodium/potassium salt and a heparin sodium salt were each observed for the activity in respect of anticoagulation parameters (μg/ml).

Another assay relates to thrombin. Put plainly: Anti-coagulation activity in human: IIaIC90 (thrombin time). Format: biochemical. As to conditions: concentration for 90% inhibition of thrombin activity, from thrombin time; human plasma. As to the method:
as §1
IIaIC90 is a concentration (μg/ml) for 90% inhibition of thrombin activity which was calculated by measuring the activity to prolong the thrombin time.

A further assay concerns factor X. Put plainly: Anti-coagulation activity in human: XaIC50 (decomposition of synthetic substrate S2222). Format: biochemical. To be noted: 50% inhibition of decomposition of synthetic substrate S2222.
Source text: as §1
XaIC50 is a medicament concentration (μg/ml) for 50% inhibition of decomposition of synthetic substrate S2222 with a factor X.

The test system of a further assay is factor VIII. Put plainly: Anti-coagulation activity in human: VIII IC80 (factor VIII deficient plasma). To be noted: 80% inhibition of factor VIII, contact-activated coagulation time. Format: biochemical. As to the method: as §1
VIII IC80 is a medicament concentration (μg/ml) for 80% inhibition of factor VIII which was calculated by measuring the activity to prolong the contact-activated coagulation time in the presence of a small amount of factor VIII using a factor VIII deficient plasma.

In assay [3] the test system is thrombin generation (inactivation of prothrombin in contact-activated plasma). Put plainly: Anti-coagulation activity in human: IIaGI (thrombin generation). Format: biochemical. As to conditions: concentration required to double control's time for complete inactivation of prothrombin in contact-activated plasma.
Source text: as §1
IIaGI is the concentration (μg/ml) required to double the control's time for complete inactivation of prothrombin in the contact-activated plasma. This represents an activity to inhibit the thrombin generation.

Assay [4] has as its system plasma-free washed platelet. Nature of the assay: Inhibitory activity against thrombin-induced platelets aggregation. Format: cell-based. To be noted: 3 μg/ml; 0.1 U/ml thrombin; rabbit washed platelets (control 86.6). As to the method:
The result of addition of the D-HG sodium salt obtained in Example 16 or a heparin sodium salt having a potency of 185.6 U/mg was evaluated by observing the aggregation of platelets (expressed in an increase of light transmittance) caused by the addition of 0.1 U/ml of thrombin to a suspension of plasma-free washed platelet obtained from a rabbit.

In assay [1], heparin [Heparin sodium salt] registered a Survival rate of 80%. In addition, in assay [2], the x2APTT was 1.2 µg/mL. In addition, in the assay with thrombin, the IIaIC90 turned out to be 0.3 µg/mL. In the assay with factor X, the XaIC50 came to 3.4 µg/mL. Besides, the “VIII IC80” value in the assay on factor VIII is 0.79 µg/mL. This substance also gave an IIaGI in assay [3] of 1.2 µg/mL. The same substance had a Light transmittance in assay [4] of 80.2%.

Values taken from patent publication US5519010A, “Sulfated polysaccharide, pharmaceutically acceptable salt thereof, process for preparing same and medicament containing same as effective component” (Taiho Pharmaceutical Co., Ltd., priority 1989, dated 1996).
